# Laboratory results: the supplement of paper PMC11061612
# Experiments:
# Assay in all cases: combination Emax (second highest fraction inhibited in the dose matrix, 72 h); higher = more inhibition; extreme values may be limits of the assay
# [1] = system: MOLP-8 (Plasma Cell Myeloma)
# Outline: (§1)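 Cell lines in DMEM/F12 or RPMI with 10% FBS were plated in 1536-well plates, held 24 hours at 37°C, 5% CO2, then given two-drug dose matrices for 72 hours (DMSO typically 0.2%). Viability was read by CellTiter-Glo 2.0 luminescence and scaled as inhibition from 0 (vehicle wells) to 1 (blank wells). Combination Emax is the second-highest inhibition in the matrix; Bliss excess is observed combination effect minus expected EA + EB − EA·EB, EA and EB being single-agent effects.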
# [2] = system: ZR-75-30 (Breast Carcinoma)
# Outline: as §1
# [3] = system: MONO-MAC-6 (Acute Myeloid Leukemia)
# Outline: as §1
# [4] = system: MOLT-13 (T-Lymphoblastic Leukemia)
# Outline: as §1
# WM35 (Melanoma) = system: WM35 (Melanoma)
# Outline: as §1
# [5] = system: TUR (Acute Myeloid Leukemia)
# Outline: as §1
# [6] = system: P30-OHK (B-Lymphoblastic Leukemia)
# Outline: as §1
# [7] = system: SK-CO-1 (Colorectal Carcinoma)
# Outline: as §1
# [8] = system: NAMALWA (Burkitt's Lymphoma)
# Outline: as §1
# [9] = system: NCI-H1963 (Small Cell Lung Carcinoma)
# Outline: as §1
# [10] = system: NMC-G1 (Low Grade Glioma)
# Outline: as §1
# KALS-1 (Glioblastoma) = system: KALS-1 (Glioblastoma)
# Outline: as §1
# NCI-H2373 (Mesothelioma) = system: NCI-H2373 (Mesothelioma)
# Outline: as §1
# [11] = system: SNU-407 (Colorectal Carcinoma)
# Outline: as §1
# [12] = system: RCC-JW (Kidney Carcinoma)
# Outline: as §1
# [13] = system: P32-ISH (Burkitt's Lymphoma)
# Outline: as §1
# ES6 (Ewing's Sarcoma) = system: ES6 (Ewing's Sarcoma)
# Outline: as §1
# IST-MEL1 (Melanoma) = system: IST-MEL1 (Melanoma)
# Outline: as §1
# [14] = system: BHT-101 (Thyroid Gland Carcinoma)
# Outline: as §1
# [15] = system: COR-L88 (Small Cell Lung Carcinoma)
# Outline: as §1
SMILES,combination Emax [1],combination Emax [2],combination Emax [3],combination Emax [4],combination Emax (WM35 (Melanoma)),combination Emax [5],combination Emax [6],combination Emax [7],combination Emax [8],combination Emax [9],combination Emax [10],combination Emax (KALS-1 (Glioblastoma)),combination Emax (NCI-H2373 (Mesothelioma)),combination Emax [11],combination Emax [12],combination Emax [13],combination Emax (ES6 (Ewing's Sarcoma)),combination Emax (IST-MEL1 (Melanoma)),combination Emax [14],combination Emax [15]
"CCN(CCO)CCCOc1ccc2c(Nc3cc(CC(=O)Nc4cccc(F)c4)[nH]n3)ncnc2c1 [AZD2811] + C=CCn1c(=O)c2cnc(Nc3ccc(N4CCN(C)CC4)cc3)nc2n1-c1cccc(C(C)(C)O)n1 [AZD1775] (first compound max 1 µM, partner max 1 µM)",0.76,0.155,0.958,1,0.197,0.668,0.846,0.674,0.977,0.876,0.254,0.841,0.408,0.416,0.161,1,0.285,0.504,0.318,0.64
"CC1(C)CCC(CN2CCN(c3ccc(C(=O)NS(=O)(=O)c4ccc(NCC5CCOCC5)c([N+](=O)[O-])c4)c(Oc4cnc5[nH]ccc5c4)c3)CC2)=C(c2ccc(Cl)cc2)C1 [Venetoclax] + Cc1cc2ncnn2cc1Nc1ncc2c(n1)n(C1CCOCC1)c(=O)n2C [AZD7648] (first compound max 1 µM, 7x7, partner max 10 µM)",0.273,0.123,0.436,0.785,0.204,0.102,0.569,0.229,0.459,0.744,0.192,0.693,0.39,0.373,0.151,0.0629,0.37,0.41,0.221,0.515
"Cc1cc2ncnn2cc1Nc1ncc2c(n1)n(C1CCOCC1)c(=O)n2C [AZD7648] + CCN(CCO)CCCOc1ccc2c(Nc3cc(CC(=O)Nc4cccc(F)c4)[nH]n3)ncnc2c1 [AZD2811] (first compound max 10 µM, 7x7, partner max 1 µM)",0.493,0.141,0.787,0.973,0.155,0.284,0.85,0.549,0.432,0.866,0.279,0.386,0.534,0.376,0.447,0.935,0.407,0.457,0.25,0.244
"CN(CCO)CC[C@H](CSc1ccccc1)Nc1ccc(S(=O)(=O)NC(=O)c2ccc(N3CCC([C@@H](O)c4ccccc4-c4ccc(Cl)cc4)CC3)cc2)cc1S(=O)(=O)C(F)(F)F [AZD4320] + Cc1cc2ncnn2cc1Nc1ncc2c(n1)n(C1CCOCC1)c(=O)n2C [AZD7648] (first compound max 1 µM, 7x7, partner max 10 µM)",0.444,0.126,0.393,0.951,0.16,0.242,0.982,0.646,0.323,1,0.759,0.343,0.374,0.721,0.566,0.193,0.268,0.415,0.363,0.964
"CCN(CCO)CCCOc1ccc2c(Nc3cc(CC(=O)Nc4cccc(F)c4)[nH]n3)ncnc2c1 [AZD2811] + O=C(c1cc(Cc2n[nH]c(=O)c3ccccc23)ccc1F)N1CCN(C(=O)C2CC2)CC1 [Olaparib] (first compound max 1 µM, 7x7, partner max 10 µM)",0.434,0.185,0.783,0.997,0.179,0.285,0.848,0.615,0.617,0.856,0.318,0.296,0.206,0.306,0.183,0.946,0.249,0.259,0.201,0.295
"Cc1c2c(nn1C)CSCc1cc(n(C)n1)CSc1cc(c3ccccc3c1)OCCCc1c(C(=O)O)n(C)c3c-2c(Cl)ccc13 [AZD5991] + Cc1cc2ncnn2cc1Nc1ncc2c(n1)n(C1CCOCC1)c(=O)n2C [AZD7648] (first compound max 1 µM, 7x7, partner max 10 µM)",1,0.307,1,1,0.207,0.557,0.649,0.279,1,0.334,0.171,0.377,0.409,0.675,0.319,1,0.334,0.291,0.599,0.297
"Cc1c2c(nn1C)CSCc1cc(n(C)n1)CSc1cc(c3ccccc3c1)OCCCc1c(C(=O)O)n(C)c3c-2c(Cl)ccc13 [AZD5991] + C=CCn1c(=O)c2cnc(Nc3ccc(N4CCN(C)CC4)cc3)nc2n1-c1cccc(C(C)(C)O)n1 [AZD1775] (first compound max 1 µM, partner max 1 µM)",1,0.364,1,1,0.371,0.965,0.875,0.517,0.996,0.945,0.425,0.886,0.394,0.796,0.279,1,0.386,0.556,0.732,0.744
"COc1cc2c(cc1OCCCCCOc1cc3c(cc1OC)C(=O)N1C=C(C)C[C@H]1C=N3)N=C[C@@H]1CC(C)=CN1C2=O [SG3199] + O=C(c1cc(Cc2n[nH]c(=O)c3ccccc23)ccc1F)N1CCN(C(=O)C2CC2)CC1 [Olaparib] (first compound max 0.001 µM, 7x7, partner max 10 µM)",0.233,0.308,0.234,0.226,0.144,0.112,0.31,0.46,0.575,0.293,0.183,0.163,0.242,0.182,0.0774,0.247,0.144,0.181,0.193,0.237
"CC1(C)CCC(CN2CCN(c3ccc(C(=O)NS(=O)(=O)c4ccc(NCC5CCOCC5)c([N+](=O)[O-])c4)c(Oc4cnc5[nH]ccc5c4)c3)CC2)=C(c2ccc(Cl)cc2)C1 [Venetoclax] + CCN(CCO)CCCOc1ccc2c(Nc3cc(CC(=O)Nc4cccc(F)c4)[nH]n3)ncnc2c1 [AZD2811] (first compound max 1 µM, 7x7, partner max 1 µM)",0.406,0.11,0.981,1,0.152,0.258,1,0.583,0.56,0.893,0.229,0.661,0.232,0.485,0.184,0.912,0.32,0.504,0.157,0.667
"CN(CCO)CC[C@H](CSc1ccccc1)Nc1ccc(S(=O)(=O)NC(=O)c2ccc(N3CCC([C@@H](O)c4ccccc4-c4ccc(Cl)cc4)CC3)cc2)cc1S(=O)(=O)C(F)(F)F [AZD4320] + CN(C)CCCOc1ccc(-c2ccc3ncc4c(c3c2)n(C2CCOCC2)c(=O)n4C)cn1 [AZD0156] (first compound max 1 µM, 7x7, partner max 1 µM)",0.315,0.169,0.422,0.949,0.152,0.118,0.987,0.712,0.158,1,0.756,0.227,0.191,0.0943,0.62,0.17,0.188,0.249,0.394,0.957
"CC1(C)CCC(CN2CCN(c3ccc(C(=O)NS(=O)(=O)c4ccc(NCC5CCOCC5)c([N+](=O)[O-])c4)c(Oc4cnc5[nH]ccc5c4)c3)CC2)=C(c2ccc(Cl)cc2)C1 [Venetoclax] + C=CCn1c(=O)c2cnc(Nc3ccc(N4CCN(C)CC4)cc3)nc2n1-c1cccc(C(C)(C)O)n1 [AZD1775] (first compound max 1 µM, partner max 1 µM)",0.75,0.159,0.992,1,0.165,0.911,0.992,0.569,0.975,0.973,0.394,0.93,0.364,0.558,0.286,1,0.513,0.799,0.489,0.939
"Cc1cc2ncnn2cc1Nc1ncc2c(n1)n(C1CCOCC1)c(=O)n2C [AZD7648] + C=CCn1c(=O)c2cnc(Nc3ccc(N4CCN(C)CC4)cc3)nc2n1-c1cccc(C(C)(C)O)n1 [AZD1775] (first compound max 10 µM, partner max 1 µM)",0.828,0.137,0.909,0.953,0.294,0.736,0.754,0.521,0.96,0.873,0.327,0.846,0.484,0.446,0.413,1,0.505,0.577,0.471,0.545
